Data on six compounds can be found in patent US20020103127A1, “Inhibitors of proteasomal activity for stimulating hair growth” (priority 1998, published 2002).

Each structure is given as a SMILES string. Where a SMILES comes first, the peptide text is derived from it. [ ]: non-standard residue; d: D form. The star is where a group is joined. Nva = CCC[C@H](N)C(=O)O; Cbz = O=C(OCc1ccccc1)*; OtBu = CC(C)(C)O*

One experiment concerns calvarial bone. As to the kind of experiment: in vitro calvarial assay. It counts as cell-based.
Experiment [1] concerns hair follicles. As to the kind of experiment: Modified in vivo calvarial assay: number of hair follicles after injection over the calvaria. Also on record: species or system Swiss ICR mice. Conditions: for number of hair follicles: administered in the same way as PSI (injection over the calvaria). The method, then: Male ICR Swiss white mice, aged 4-6 weeks and weighing 13-26 gm, are employed, using 4-5 mice per group. The calvarial bone growth assay is performed as described in PCT application WO95/242 11, incorporated by reference. Briefly, the test compound or appropriate control vehicle is injected into the subcutaneous tissue over the right calvaria of normal mice. Typically, the control vehicle is the vehicle in which the compound was solubilized, and is PBS containing 5% DMSO or is PBS containing Tween (2 μl/10 ml). The animals are sacrificed on day 14 and bone growth measured by histomorphometry. Bone samples for quantitation are cleaned from adjacent tissues and fixed in 10% buffered formalin for 24-48 hours, decalcified in 14% EDTA for 1-3 weeks, processed through graded alcohols; and embedded in paraffin wax. Three to five μm sections of the calvaria are prepared, and representative sections are selected for histomorphometric assessment of the effects on bone formation and bone resorption. Sections are measured by using a camera lucida attachment to trace directly the microscopic image onto a digitizing plate. Bone changes are measured on sections cut 200 μm apart, over 4 adjacent 1×1 mm fields on both the injected and noninjected sides of the calvaria. New bone is identified by its characteristic woven structure, and osteoclasts and osteoblasts are identified by their distinctive morphology. Histomorphometry software (OsteoMeasure, Osteometrix, Inc., Atlanta) is used to process digitizer input to determine cell counts and measure areas or perimeters.
(§1) The assay described above to assess the effect of compounds on calvarial bone growth can also be used to assess the ability of compounds to stimulate hair growth. The test compound or appropriate control vehicle is applied to the upper and lower back of male ICR Swiss white mice either topically or by subcutaneous injection. The vehicle is selected as appropriate for the compound to be tested and for the route of administration. Optionally, the hair in the test area may be removed prior to administration. After a suitable interval, typically 7 days, the mice are anesthetized and a biopsy of the dorsal treatment area is taken using a 6 mm dermal punch. The specimens are fixed in 10% buffered formalin and imbedded in paraffin wax, and sectioned and stained to observe hair follicles. In addition, photography can be used to observe and record hair growth; typically such growth is observed after 14-18 days. After a suitable interval, typically 21 days, the animals may be euthanized and the hair analyzed for fiber analysis and the tissue from the treatment area analyzed for quantitation of hair follicles.
The in vivo bone calvarial growth assay of Example 3 was modified to observe the number of hair follicles in treated mice. […]

Experiment [2] concerns hair follicles. As to the kind of experiment: Stimulation of hair growth: subcutaneous injection into scalp and dorsal region after wax hair stripping. Format: in vivo, Male Swiss ICR mice. The following applies: 1 mg/kg/day s.c. three times a day for five days.
From the text: as §1
Male Swiss ICR mice were first treated to remove hair from the scalp and dorsal regions as follows. Paraffin wax was liquefied by heating to 55° C. and the liquefied wax then applied by brush to the scalp and/or back (under anesthesia). The wax was allowed to solidify and then removed. The day following hair stripping, PSI (1 mg/kg/day) was injected subcutaneously three times a day for five days into the scalp and dorsal region.
The mice were sacrificed on day 21 and histology was performed on the dermis of the scalp and of the dorsal region. […] Upon closer examination, it was observed that mice that had received only vehicle had quiescent hair follicles.

Experiment [3] concerns hair follicles. As to the kind of experiment: Topical administration of PSI solution, hair growth. It counts as in vivo, mice. The method, then:
PSI was prepared as a topical formulation, where the vehicle was 50% propylene glycol, 30% ethanol, 20% deionized water, at 0.1% concentration of PSI. The solution was applied 3 times a day for 5 days. The mice in a treated group were observed as compared to controls similarly treated with vehicle alone.
When the protocol above was repeated using a 0.5% solution of PSI in groups containing 5 mice each, the number of hairs per 0.8 mm^2 was 60 in the treated mice versus about 10 in the control group. The percentage of follicle area in a region of about 0.8 mm^2 was about 30% as an average in the treated group as compared to 15% as an average in the control group.

Experiment [4] has as its system hair follicles. As to the kind of experiment: Topical dose response of PSI (dose requirements). It counts as in vivo, mice. The method, then: In order to determine the minimal effective dosage of PSI, when used topically, a dose response curve for PSI was prepared. All experiments were preformed according to current good laboratory practice regulations (21CFR58). The mice were divided into 7 groups, 10 mice each, wherein one group was control treated only with vehicle and groups 1-6 with a series of increasing concentrations of PSI in a vehicle comprising 50% propylene glycol, 30% ethanol, 20% deionized water. The concentrations were 0.006%, 0.012%, 0.025%, 0.05%, 0.11% and 0.5%.
The mice were anesthetized (50 μl Mouse Cocktail containing 3 ml ketamine, 2 ml small animal rompum, 5 ml NaCl), identified by ear punch code, weighed and the hair on the dorsal side removed by waxing as described in Example 6. After waxing, the animals were photographed. On the following day (day 1), 100 μl of PSI at the above concentrations in vehicle was brushed onto the area of removed hair. […]
On Day 7 mice were anesthetized and a biopsy of the dorsal treatment area taken using a 6 mm dermal punch; the specimens were fixed in 10% buffered formalin and embedded in paraffin wax. Sections were cut using a standard microtome.
Mice were monitored daily for signs of hair growth, and any hair growth was recorded by photography. On day 21 animals were euthanized (75 mg/kg body weight phenobarbital, IP injection), 2 cm hair samples were taken for optical based fiber analysis, and the remaining dorsal treatment area was fixed in 10% buffered formalin for further histological analysis. Analysis included quantification of hair thickness and quantification of mature hair follicles. Results were expressed as the mean =+/− the standard error of the mean. Data were analyzed by repeated measures of analysis of variance followed by the Tukey-Kramer post test P values of <0.05 were considered significant.

For experiment [5] the following is noted: compared with proteasome inhibitors such as MG-132.
Setting [6] is: topical 0.5% solution of PSI, 3 times a day for 5 days, groups of 5 mice.

In the case of `CC(=O)CCCCn1c(=O)c2c(ncn2C)n(C)c1=O` [pentoxyfilline], the “activity in the in vitro calvarial assay” value in the experiment with calvarial bone is “active”.

For the compound `CC[C@H](C)[C@H](NC(=O)OCc1ccccc1)C(=O)N[C@@H](CCC(=O)OC(C)(C)C)C(=O)N[C@@H](C)C(=O)N[C@H](C=O)CC(C)C` [PSI, N-carbobenzoyl-Ile-Glu-(OtBu)-Ala-Leu-CHO] (Cbz-IE(OtBu)AL-aldehyde), the “number of hair follicles (histology of the calvaria) versus control mice” value with hair follicles [1] (5mg/kg/day injected three times a day for 5 days over the calvaria, sacrificed sixteen days later) is listed as “strikingly large increase in the number of hair follicles”. The “hair growth rate versus control group” value in the experiment with hair follicles [2] (by day 18) is recorded as “hair growth rate greater than that of the mice in the control group”. The “number of hair follicles (dermal punch biopsy histology) versus control mice” value with hair follicles [2] (day 7) is “large increase in the number of hair follicles”. Further, in the experiment on hair follicles [2] (day 21), the “effect on quiescent hair follicles (histology)” value is “stimulated to differentiate into mature hair follicles and to migrate to the lower region of the dermis”; the “mature hair follicles in dermis of scalp and dorsal region (histology)” value is “mature hair follicles in numbers much greater than in controls had migrated to the lower region of the dermis”. Further, the “hair growth relative to vehicle controls” value in the experiment with hair follicles [3] (topical 0.1% PSI in 50% propylene glycol, 30% ethanol, 20% water, 3 times a day for 5 days, day 16) was “stimulation of hair growth relative to the controls”. In addition, in the experiment with hair follicles [3] (setting [6]), the “number of hairs per 0.8 mm^2” value was 60 per 0.8 mm^2 and the “percentage of follicle area in a region of about 0.8 mm^2 (average)” value was “about 30%”. In the experiment on hair follicles [3] (topical PSI), the “thickness of hair and hair shaft” value was “able to thicken both the hair and the hair shaft”. Besides, the hair count result in the experiment on hair follicles [3] (topical PSI, follicle area greater than 0.01 mm^2) is given as “increases hair count”. Besides, in the experiment on hair follicles [4] (0.1% applied topically 3 times a day for 5 days), the “efficacy on hair growth (additional experiments)” value was “also effective”. For the same compound, the “gross observation of hair growth” value in the experiment with hair follicles [4] (mice receiving an effective topical dose) is “an enhanced rate of hair growth, a thickening of hair diameter, increase in sheath diameter, and differentiation of quiescent hair follicles into more mature forms”. Moreover, in the experiment on hair follicles [4] (topical, applied 1 time a day for 4 days, 100 μl in 50% propylene glycol, 30% ethanol, 20% water), the “minimal effective dose (topical concentration)” value is 0.5%.

For the compound `CC(=O)N[C@@H](CSC(=O)[C@]1([C@@H](O)C(C)C)NC(=O)[C@H](C)[C@@H]1O)C(=O)O` [lactacysin, lactacystin], the “number of hair follicles” value in the experiment with hair follicles [1] (dose not given) is on record as “stimulated an increase in the number of hair follicles”.

As to `C=C(C)[C@]12C[C@@H](C)[C@@]34O[C@](Cc5ccccc5)(O[C@@H]1[C@@H]3C=C(COC(=O)Cc1ccc(O)c(OC)c1)C[C@]1(O)C(=O)C(C)=C[C@@H]41)O2` [resiniferatoxin], the “activity in the ABA assay” value in experiment [5] is “less active”.

With `CCC[C@@H](C=O)NC(=O)[C@H](CC(C)C)NC(=O)[C@H](CC(C)C)NC(=O)OCc1ccccc1` [MG115, N-carbobenzoyl-Leu-Leu-Nva-CHO] (Cbz-Leu-Leu-[Nva]-aldehyde), the “number of hair follicles” value in the experiment on hair follicles [1] (10 mg/kg) is listed as “stimulated an increase in the number of hair follicles”.

For `CC(C)C[C@@H](C=O)NC(=O)[C@H](CC(C)C)NC(=O)[C@H](CC(C)C)NC(=O)OCc1ccccc1` [MG132, N-carbobenzoyl-Leu-Leu-Leu-CHO] (Cbz-Leu-Leu-Leu-aldehyde), the “number of hair follicles” value in the experiment on hair follicles [1] (10 mg/kg) was “stimulated an increase in the number of hair follicles”.
